The values below come from PMC8344233, “Anticancer activity and toxicity of new quaternary ammonium geldanamycin derivative salts and their mixtures with potentiators” (Journal of Enzyme Inhibition and Medicinal Chemistry, 2021).

≈ marks a conversion by molar mass, not a printed value.

Series [1] relates to MDA-MB-231. Nature of the series: MTT cytotoxicity assay, MDA-MB-231 (1st panel). The class given is cell-based, human. Conditions: for IC50: Homo sapiens, MDA-MB-231, ± SD, MTT, 72 h; for selectivity index SI (MDA-MB-231): IC50 normal cell line CCD39Lu/IC50 MDA-MB-231. The procedure: (§1) Cell survival was measured as the percentage absorbance compared to the control (nontreated cells). […]
(§2) SI indexes were calculated from equation SI = IC50 normal cell line HDF/IC50 respective cancerous cell line (Table 2). A beneficial SI > 1.0 indicates a compound with efficacy against tumor cell greater than the toxicity against normal cells.
(§3) All experiments were carried out with human breast adenocarcinoma (MDA-MB-231 and MCF-7), hepatocellular carcinoma (HepG2), human cervical adenocarcinoma (HeLa) cancer cell lines, and human normal lung fibroblast (CCD39Lu) cell line. The cell line was purchased from the European Collection of Cells Cultures (ECACC, Salisbury, UK), and cultured in DMEM with phenol red supplemented with 10% (v/v) FBS, 1% (v/v) penicillin/streptomycin, and 1% (v/v) L-glutamine at 37 °C, in a humidified atmosphere containing 5% CO2.
(§4) The tested compounds were dissolved in DMSO to the final concentration 10 mM and stored […]
(§5) The cytotoxic effect of the tested compounds was determined by MTT assay. MDA-MB-231, MCF-7, HepG2, HeLa, and CCD39Lu cells were seeded in 96 wells plates at density 2x10^4 cells/well and incubated overnight under cell culture condition. Next, cells were treated with tested compounds at concentrations of 10 µM; 5 µM; 2.5 µM; 1.2 µM; 0.6 µM; 0.3 µM; 0.15 […]
(§6) µM. Moreover, GDM (for MCF-7) and 8 (for MCF-7 and MDA-MB-231) due to high cytotoxicity, were additionally tested at a lower concentration range of 2.5 µM; 1.2 µM; 0.6 µM; 0.3 µM; 0.15µM; 0.07 µM; 0.03 µM. DMSO was used as a control, and the concentration […]
(§7) Tested compounds were added to cells in the medium without phenol red. Cells were incubated 72 h at 37 °C in a humidified atmosphere containing 5% CO2.
(§8) Then, the medium was aspirated and MTT solution at a concentration of 0.59 mg/mL in cell culture medium was added to each well. Plates were incubated for 1.5 hours at 37 °C, and then plates were centrifuged for 3 minutes. The formazan crystals were dissolved in 200 µl DMSO and plates were agitated on a plate shaker at 300 –500 rpm for 10 minutes. Absorbance at 570 nm was measured using a plate reader (Biotek Instruments, Elx -800). Data were normalized to the mean absorption of control cells. All experiments were performed at least three times. […]
(Tetrazolium dyes change colour on reduction, which living cells bring about.)

The subject of series [2] is CCD39Lu. Nature of the series: MTT cytotoxicity assay, normal lung fibroblasts CCD39Lu. The class given is cell-based. Conditions: Fibroblast, ± SD, healthy human lung fibroblasts, 72 h, read-out: IC50 CCD39Lu (toxicity in normal cells). How it is done:
as §1, §2, §3, §4, §5, §6, §7, §8

Series [3] concerns HepG2. Nature of the series: MTT cytotoxicity assay, HepG2 (1st panel). The conditions noted are these: for IC50: Homo sapiens, HepG2, ± SD, MTT, 72 h; for selectivity index SI (HepG2): IC50 normal cell line CCD39Lu/IC50 HepG2. The class given is cell-based, human. How it is done: as §1, §2, §3, §4, §5, §6, §7, §8
The subject of series [4] is MCF-7. Nature of the series: MTT cytotoxicity assay, MCF-7 (1st panel). The class given is cell-based, human. The conditions noted are these: for IC50: Homo sapiens, MCF7, 72 h, ± SD, MTT, 72 h; for selectivity index SI (MCF-7): IC50 normal cell line CCD39Lu/IC50 MCF-7. The procedure: as §1, §2, §3, §4, §5, §6, §7, §8
The nature of series [5]: Water solubility SH2O.
The subject of series [6] is HeLa. Nature of the series: MTT cytotoxicity assay, HeLa (1st panel). The class given is cell-based, human. Conditions: for IC50: Homo sapiens, HeLa, ± SD, MTT, 72 h; for selectivity index SI (HeLa): IC50 normal cell line CCD39Lu/IC50 HeLa. How it is done:
as §1, §2, §3, §4, §5, §6, §7, §8

In series [7] the test system is SKBR-3. Nature of the series: SRB cytotoxicity assay, SKBR-3 (2nd panel). The class given is cell-based, human. Conditions: for IC50: Homo sapiens, SK-BR-3, ± SD, SRB, 72 h, mixtures equimolar 1:1; for selectivity index SIHDF (SKBR-3): IC50 normal cell line HDF/IC50 SKBR-3. How it is done:
(§9) Human cancer cells SKBR-3 (human breast cancer cell line) and SKOV-3 (ovarian cancer cell line) were cultured in McCoy’s Modified Medium. […]
(§10) Medium. Human Dermal Fibroblasts cell line (HDF) was cultured in Fibroblast Basal Medium.
(§11) Each medium was supplemented with 10% fetal bovine serum, 1% L-glutamine, and 1% penicillin/streptomycin solution. The cell lines were kept in the incubator at 37◦C. The optimal plating density of cell lines was determined to be 5 × 104. All the cell lines and mediums were obtained from American Type Culture Collection (ATCC) supplied by LGC-Standards. The protein-staining SRB (Sigma-Aldrich) microculture colorimetric assay, developed by the National Cancer Institute (USA) for in vitro antitumor screening was used in this study, to estimate the cell number by providing a sensitive index of total cellular protein content, being linear to cell density. The monolayer cell culture was trypsinized and the cell count was adjusted to 5 × 10^4 cells. To each well of the 96 well microtiter plate, 0.1 mL of the diluted cell suspension (approximately […]) was added. After 24 hours, when a partial monolayer was formed, the supernatant was washed out and 100 μL of six different compound concentrations (0.1, 0.2, 1, 2, 10, and 20 μM) were added to the cells in microtitre plates. The tested compounds were dissolved in DMSO (containing 10 % of water) (100 μL) and the […]
(§12) lines. The cells were exposed to compounds for 72 hours at 37 °C in a humidified atmosphere (90% RH) containing 5% CO2. After that, 25 μL of 50 % trichloroacetic acid was added to the wells and the plates were incubated for 1 hour at 4◦C. The plates were then washed out with the distilled water to remove traces of medium and next dried by the air. The air-dried plates were stained with 100 μL of 0.4% sulforhodamine B (prepared in 1 % acetic acid) and kept for 30 minutes at room temperature. The unbound dye was removed by rapidly washing with 1% […]
(§13) acetic acid and then air dried overnight. The protein-bound dye was dissolved in 100 μL of 10 mM unbuffered Tris base (pH 10.5) for optical density determination at 490 nm. All cytotoxicity experiments were performed three times. Cell survival was measured as the percentage absorbance compared to the control (nontreated cells). Cytarabine (ara-C) and GDM were used as the internal standards. Additionally biological assays were performed in Human Dermal Fibroblasts cell line (HDF) in aim to evaluate cytotoxicity of GDM and its 1-13 analogs in healthy cells. SI indexes were calculated from equation SI = IC50 normal cell line HDF/IC50 respective cancerous cell line (Table 2). A beneficial SI > 1.0 indicates a compound with efficacy against tumor cell greater than the toxicity against normal cells. […]
For orientation: In SRB staining, fixed cells bind dye roughly in proportion to their protein.

The test system of series [8] is PC-3. Nature of the series: SRB cytotoxicity assay, PC-3 (2nd panel). The class given is cell-based, human. The conditions noted are these: for IC50: Homo sapiens, PC-3, ± SD, SRB, 72 h, mixtures equimolar 1:1; for selectivity index SIHDF (PC-3): IC50 normal cell line HDF/IC50 PC-3. The procedure: as §10, §11, §12, §13
The nature of series [9]: physchem. The conditions noted are these: water, Solubility SH2O.
For series [10], the system named is U-87. Nature of the series: SRB cytotoxicity assay, U-87 (2nd panel). The conditions noted are these: for IC50: Homo sapiens, U-87 MG, ± SD, SRB, 72 h; for selectivity index SIHDF (U-87): IC50 normal cell line HDF/IC50 U-87. The class given is cell-based, human. The procedure:
U-87MG cells (glioblastoma cell line) were cultured in Eagle’s Minimal Essential Medium. Human Dermal Fibroblasts cell line (HDF) was cultured in Fibroblast Basal Medium.
as §11, §12, §13

Series [11] has as its system SKOV-3. Nature of the series: SRB cytotoxicity assay, SKOV-3 (2nd panel). The class given is cell-based, human. The conditions noted are these: for IC50: Homo sapiens, SK-OV-3, ± SD, SRB, 72 h, mixtures equimolar 1:1; for selectivity index SIHDF (SKOV-3): IC50 normal cell line HDF/IC50 SKOV-3. The procedure: as §9, §10, §11, §12, §13
For series [12], the system named is HDF. Nature of the series: SRB cytotoxicity assay, human dermal fibroblasts HDF. The class given is cell-based. Conditions: 72 h, ± SD, mixtures equimolar 1:1, read-out: IC50 HDF (toxicity in normal cells). How it is done:
as §10, §11, §12, §13

For series [13], the system named is A-549. Nature of the series: SRB cytotoxicity assay, A-549 (2nd panel). Conditions: for IC50: Homo sapiens, A549, ± SD, SRB, 72 h; for selectivity index SIHDF (A-549): IC50 normal cell line HDF/IC50 A-549. The class given is cell-based, human. The procedure: as §10, §11, §12, §13

Turning to `CO[C@H]1/C=C\C=C(/C)C(=O)NC2=CC(=O)C(NC3CCC(O)CC3)=C(C[C@@H](C)C[C@H](OC)[C@H](O)[C@@H](C)/C=C(\C)[C@@H]1OC(N)=O)C2=O` (stereo partly shown) [Compound 4], in [1], the 50% inhibitory concentration (IC50) (as a rule, the concentration that gives 50% inhibition) is above 10 µM and the “selectivity index SI (MDA-MB-231)” value was above 1. In series [2], the IC50 was above 10 µM. Also, in [3], the half-maximal inhibitory concentration (IC50) is above 10 µM and the “selectivity index SI (HepG2)” value is above 1. Also, in series [4], the 50% inhibitory concentration (IC50) was above 10 µM and the “selectivity index SI (MCF-7)” value is listed as above 1. The solubility (commonly the dissolved amount per volume that the medium holds) in [5] was found to be 40 µg/mL (≈ 62.1 µM). Further, in series [6], the IC50 was above 10 µM and the “selectivity index SI (HeLa)” value was above 1.
In the case of `CO[C@H]1/C=C\C=C(/C)C(=O)NC2=CC(=O)C(NC3C[N+]4(Cc5ccsc5Br)CCC3CC4)=C(C[C@@H](C)C[C@H](OC)[C@H](O)[C@@H](C)/C=C(\C)[C@@H]1OC(N)=O)C2=O` (stereo partly shown) [Compound 12], the IC50 in series [1] was 5.01 ± 2.15 µM; in series [7], 8.49 ± 0.36 µM; in series [2] it was above 10 µM; in series [8] it was 7.94 ± 0.03 µM; in series [3] it was above 10 µM; in [4], 2.65 ± 1.09 µM. For the same molecule, the IC50 came out at 8.58 ± 0.19 µM in series [10], 8.02 ± 0.17 µM in series [11], 9.12 ± 1.81 µM in series [6] and 8.94 ± 0.27 µM in series [13]. In addition, the “selectivity index SI (MDA-MB-231)” value in [1] was above 2.00. Further, the “selectivity index SIHDF (SKBR-3)” value in series [7] is 1.64. Besides, the “selectivity index SIHDF (PC-3)” value in series [8] turned out to be 1.75. For the same molecule, the “selectivity index SI (HepG2)” value in [3] was above 1. In series [9], this molecule had a solubility of 4500 µg/mL. Further, the “selectivity index SI (MCF-7)” value in series [4] is reported as above 3.77. In addition, the “selectivity index SIHDF (U-87)” value in series [10] was 1.62. In addition, the “selectivity index SIHDF (SKOV-3)” value in series [11] came to 1.73. Moreover, the “selectivity index SI (HeLa)” value in series [6] was above 1.10. Besides, in series [12], the CC50 stood at 13.9 ± 0.42 µM. In addition, the “selectivity index SIHDF (A-549)” value in series [13] was 1.56.
On to `COC1=C2C[C@@H](C)C[C@H](OC)[C@H](O)[C@@H](C)/C=C(\C)[C@H](OC(N)=O)[C@@H](OC)/C=C\C=C(/C)C(=O)NC(=CC1=O)C2=O` [GDM, Geldanamycin], for which, in series [1], the half-maximal inhibitory concentration (IC50) is 1.04 ± 0.63 µM and the “selectivity index SI (MDA-MB-231)” value was found to be 8.17. Also, in series [7], the IC50 was 0.87 ± 0.17 µM and the “selectivity index SIHDF (SKBR-3)” value is listed as 2.45. Further, the IC50 in [2] came to 8.5 ± 0.25 µM. Moreover, in series [8], the concentration for half-maximal inhibition (IC50) worked out at 0.73 ± 0.01 µM and the “selectivity index SIHDF (PC-3)” value is given as 2.92. In series [3], half-maximal inhibition (IC50) required 0.74 ± 0.32 µM and the “selectivity index SI (HepG2)” value turned out to be 11.48. Besides, in series [4], the half-inhibitory concentration (IC50) turned out to be 3.51 ± 0.21 µM and the “selectivity index SI (MCF-7)” value was found to be 2.42. Moreover, in series [10], the concentration for half-maximal inhibition (IC50) stood at 0.81 ± 0.12 µM and the “selectivity index SIHDF (U-87)” value amounted to 2.62. In addition, in series [5], the “Solubility SH2O” value was “almost water-insoluble”. In addition, in series [11], the IC50 stood at 0.94 ± 0.09 µM and the “selectivity index SIHDF (SKOV-3)” value was determined as 2.27. Besides, in [6], the half-inhibitory concentration (IC50) came to 1.42 ± 0.1 µM and the “selectivity index SI (HeLa)” value turned out to be 5.99. In [12], the CC50 was 2.13 ± 0.11 µM. Also, in [13], half-maximal inhibition (IC50) required 0.99 ± 0.01 µM and the “selectivity index SIHDF (A-549)” value came to 2.15.
